Assay results as given in patent US9464105B2, “Hydroxylated KRN7000 analogue and use thereof” (RIKEN, priority 2012, dated 2016).

The compounds below were run on IFN-γ and IL-4 in plasma (assay: Cytokine content in mouse plasma after intravenous administration of glycolipid (Cytometric Bead Array)). Conditions: tail vein, 100 μg/kg body weight, plasma up to 60 hr (FIG. 1, FIG. 2).
Assay type: in vivo, C57BL/6 mice
Description: Solutions of each of KRN7000, RCAI-147, RCAI-151, and RCAI-160 in dimethyl sulfoxide (DMSO) at a concentration of 1 mg/mL were prepared. The above-mentioned DMSO solutions were diluted 5-fold with 0.5% Tween 20 (Bio-Rad)-containing phosphate buffer (Invitrogen) and further diluted 20-fold with phosphate buffer, such that the dose became 100 μg/kg body weight when 200 μL was administered per mouse from the tail vein.
To three C57BL/6 mice per group was injected each prepared solution (200 μL) of RCAI-147, RCAI-151 and RCAI-160 into the tail vein (administration of about 2 μg per mouse). As a control substance, KRN7000 was used, and a solution (200 μL) of KRN7000 prepared in the same manner such that the dose became 100 μg/kg body weight was injected into the tail vein. The blood (80 μL) immediately before administration, and after lapse of 1, 3, 6, 12, 24, 32, 48 and 60 hr was collected from orbital plexus venosus, and plasma was prepared.
The content of each cytokine in plasma immediately before and after administration of each glycolipid was measured by Cytometric Bead Array (CBA) system (BD Biosciences) which is one of the ELISA methods.
The measurement results (mean) and standard deviation thereof (STDEV) of the content of IFN-γ in plasma immediately before administration, and after lapse of 3, 6, 12, 24, 32, 48 and 60 hr are shown in FIG. 1. The measurement results (mean) and standard deviation thereof (STDEV) of the content of IL-4 in plasma immediately before administration, and after lapse of 1, 3, 6, 12 and 24 hr from the administration are shown in FIG. 2.

SMILES | cytokine production induction activity (IFN-γ / IL-4 bias) as compared to KRN7000
CCCCCCCCCCCCCCCCCCCCCCC[C@@H](O)[C@@H](O)C(=O)N[C@@H](COC1OC(CO)C(O)C(O)C1O)[C@H](O)[C@H](O)CCCCCCCCCCCCCC (stereo partly drawn) [RCAI-151, (2S,3S,4R)-3,4-dihydroxy-2-[(2′R,3′R)-2′,3′-dihydroxyhexacosanoylamino]octadecyl α-D-galactopyranoside] | cytokine production induction activity biased to the IL-4 as compared to KRN7000
CCCCCCCCCCCCCCCCCCCCCC[C@@H](O)[C@@H](O)[C@@H](O)C(=O)N[C@@H](CO[C@H]1O[C@H](CO)[C@H](O)[C@H](O)[C@H]1O)[C@H](O)[C@H](O)CCCCCCCCCCCCCC [RCAI-160, (2S,3S,4R)-2-[(2′R,3′R,4′R)-2′,3′,4′-trihydroxyhexacosanoyl]amino-3,4-di-hydroxyoctadecyl α-D-galactopyranoside] | cytokine production induction activity biased to the IL-4 as compared to KRN7000
CCCCCCCCCCCCCCCCCCCCCCC[C@@H](O)[C@@H](O)C(=O)N[C@@H](COC1OC(CO)C(O)C(O)C1O)[C@H](O)[C@H](O)[C@@H](O)[C@@H](O)CCCCCCCCCCCC (stereo partly drawn) [RCAI-147, (2S,3S,4S,5S,6S)-2-[(2′R,3′R)-2′,3′-(dihydroxy)hexacosanoylamino]-3,4,5,6-(tetrahydroxy)octadecyl α-D-galactopyranoside] | cytokine production induction activity biased to the IL-4 as compared to KRN7000
